Laboratory results from patent US11285140B2, “Piperidin-4-yl azetidine derivatives as JAK1 inhibitors” (Incyte Corporation, priority 2010, dated 2022).

What was measured:
Assay type in all cases: biochemical
[1] = biological target: human Jak2 (a.a. 828-1132) (Homo sapiens (Human), UniProt O60674); assay: In vitro JAK kinase assay (HTRF, phosphorylation of biotinylated peptide), JAK2; conditions: measured at 1 mM ATP
Procedure: (§1) Compounds herein were tested for inhibitory activity of JAK targets according to the following in vitro assay described in Park et al., Analytical Biochemistry 1999, 269, 94-104. The catalytic domains of human JAK1 (a.a. 837-1142), Jak2 (a.a. 828-1132) and Jak3 (a.a. 781-1124) with an N-terminal His tag were expressed using baculovirus in insect cells and purified. The catalytic activity of JAK1, JAK2 or JAK3 was assayed by measuring the phosphorylation of a biotinylated peptide. The phosphorylated peptide was detected by homogenous time resolved fluorescence (HTRF). […] Reactions were carried out at room temperature for 1 hr and then stopped with 20 μL 45 mM EDTA, 300 nM SA-APC, 6 nM Eu-Py20 in assay buffer (Perkin Elmer, Boston, Mass.). Binding to the Europium labeled antibody took place for 40 minutes and HTRF signal was measured on a Fusion plate reader (Perkin Elmer, Boston, Mass.).

[2] = biological target: human JAK1 (a.a. 837-1142) (Homo sapiens, UniProt P23458); assay: In vitro JAK kinase assay (HTRF, phosphorylation of biotinylated peptide), JAK1; conditions: measured at 1 mM ATP
Procedure: as §1

[3] = biological target: human JAK1 (a.a. 837-1142); assay: as above; conditions: measured at 1 mM ATP; JAK2 IC50 / JAK1 IC50
Procedure: as §1

Chain of human Jak2 (a.a. 828-1132) (O60674 828-1132): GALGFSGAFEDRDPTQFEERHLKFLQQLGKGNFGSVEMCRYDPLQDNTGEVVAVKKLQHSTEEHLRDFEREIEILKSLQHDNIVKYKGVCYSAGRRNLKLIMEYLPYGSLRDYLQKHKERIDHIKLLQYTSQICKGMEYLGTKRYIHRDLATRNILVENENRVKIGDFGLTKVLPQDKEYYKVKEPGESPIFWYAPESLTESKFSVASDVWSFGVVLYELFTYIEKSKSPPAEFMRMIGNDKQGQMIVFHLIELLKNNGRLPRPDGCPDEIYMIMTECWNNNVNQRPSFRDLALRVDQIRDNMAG

Row | Compound | IC50 [1] [nM] | IC50 [2] [nM] | IC50 Ratio JAK2/JAK1 [3]
1 | N#CCC1(n2cc(-c3ncnc4[nH]ccc34)cn2)CN(C2CCN(Cc3ccc(F)cc3F)CC2)C1 [Example 217, {1-[1-(2,4-difluorobenzyl)piperidin-4-yl]-3-[4-(7H-pyrrolo[2,3-d]pyrimidin-4-yl)-1H-pyrazol-1-yl]azetidin-3-yl}acetonitrile] | 10 to 50 | 5 to 20 | 5.8
2 | N#CCC1(n2cc(-c3ncnc4[nH]ccc34)cn2)CN(C2CCN(C(=O)C3Cc4ccccc4C3)CC2)C1 [Example 99, {1-[1-(2,3-dihydro-1H-inden-2-ylcarbonyl)piperidin-4-yl]-3-[4-(7H-pyrrolo[2,3-d]pyrimidin-4-yl)-1H-pyrazol-1-yl]azetidin-3-yl}acetonitrile] | 10 to 50 | 5 to 20 | 5.6
3 | 4-{3-(cyanomethyl)-3-[4-(7H-pyrrolo[2,3- d]pyrimidin-4-yl)-1H-pyrazol-1- yl]azetidin-1-yl}-N-(2-methylphenyl) piperidine-1-carboxamide [Example 185] | 10 to 50 | ≤ 5 | 9.5
4 | 4-{3-(cyanomethyl)-3-[3-(7H-pyrrolo[2,3- d]pyrimidin-4-yl)-1H-pyrrol-1- yl]azetidin-1-yl}-N-[4- (trifluoromethyl)pyridin-3-yl]piperidine- 1-carboxamide [Example 165] | 50 to 100 | 5 to 20 | 10.4
5 | 4-{3-(cyanomethyl)-3-[4-(7H-pyrrolo[2,3- d]pyrimidin-4-yl)-1H-pyrazol-1- yl]azetidin-1-yl}-N-(2,5-difluorophenyl) piperidine-1-carboxamide [Example 174] | ≤ 10 | ≤ 5 | 7.1
6 | CC(C)(C)C(=O)Nc1cc(CN2CCC(N3CC(CC#N)(n4cc(-c5ncnc6[nH]ccc56)cn4)C3)CC2)ccn1 [Example 235, N-{4-[(4-{3-(cyanomethyl)-3-[4-(7H-pyrrolo[2,3-d]pyrimidin-4-yl)-1H-pyrazol-1-yl]azetidin-1-yl}piperidin-1-yl)methyl]pyridin-2-yl}-2,2-dimethylpropanamide] | 10 to 50 | 5 to 20 | 2.5
7 | 4-{3-(cyanomethyl)-3-[4-(7H-pyrrolo[2,3- d]pyrimidin-4-yl)-1H-pyrazol-1- yl]azetidin-1-yl}-N-(3,5-difluorophenyl) piperidine-1-carboxamide [Example 175] | ≤ 10 | ≤ 5 | 3.6
